Experimental data: patent publication US8404751B2, “Subunguicide, and method for treating onychomycosis” (Hallux, Inc., priority 2002, dated 2013)
Where a name gives a salt, the structure may show the parent alone.

Assay: Solubility of terbinafine HCl in isopropyl alcohol
Assay type: physicochemical
Experimental: Terbinafine free base was prepared by adding 2.0 g of terbinafine HCl to 8.0 g of isopropyl alcohol (IPA) and 4.0 g Dowex Marathon A OH ion exchange resin. This resin exchanges OH^− for Cl^− and was washed with IPA prior to use. With the Cl^− removed from solution, the free base formed and the terbinafine went into solution within 5-10 minutes. (Terbinafine HCl is soluble in IPA up to 3.7%.) The reaction with the resin was run for 4 hours. Presence of the free base was confirmed by adding a drop of this IPA solution into water and measuring pH with a color strip. Adding the IPA solution caused the water pH to increase approximately one unit. The resin added OH^− to the solution, which reacted with H^+ and increased the water content. Excess water was removed by storing the terbinafine free base solution over molecular sieves for one week.

CN(C/C=C/C#CC(C)(C)C)Cc1cccc2ccccc12 [Terbinafine HCl, terbinafine HCl]
soluble in IPA up to: 3.7%
